The SangsterLogP compilation
Peptide text beside a SMILES is read from it. * marks the point of attachment. NHtBu = CC(C)(C)N*

Key:
[1] = method code SF-AS, from DOI: 10.1016/0006-2952(93)90433-w, PMID: 8494536; settings: pH 7.4
[2] = not given; remark: listed apart in the source
[3] = method code SF-AS, from DOI: 10.1021/es00012a023, PMID: 22148214
[4] = not given; remark: listed apart in the source
[5] = not given; remark: listed apart in the source
[6] = not given; remark: listed apart in the source
[7] = method code SF-HPLC, from Yu, G.; Xu, X. (1993). Determination of the 1-octanol/water partition coefficient of nitro-PAHs. Huanjing Huaxue, 12(4)299-303.
[8] = method code SF-RC, from DOI: 10.1023/a:1015892313856, PMID: 1495896
[9] = method code SF-AS, from Falk, M.; Luecke, L. (1989). Transport of substances through lipid membranes. 11. Effect of esterification on the dissociation and permeation of orotic acid. Pharmazie, 44(9)647.; settings: pH 1.2
[10] = method code SF, from DOI: 10.1248/cpb.39.1346, PMID: 1914012
[11] = method code SF-HPLC, from DOI: 10.1023/a:1018903407592, PMID: 8165182; settings: pH 7.4
[12] = not given; remark: listed apart in the source
[13] = not given; remark: listed apart in the source
[14] = method code SF, from DOI: 10.1021/jm200015a, PMID: 21630666; settings: pH 7.4
[15] = method code SF-HPLC, from DOI: 10.1016/0378-5173(88)90064-6; settings: pH 7.4
[16] = not given; remark: listed apart in the source
[17] = not given; remark: listed apart in the source
[18] = method code SF-HPLC, from DOI: 10.1002/jps.10072, PMID: 11920751; settings: pH 7.4
[19] = not given; remark: listed apart in the source
[20] = method code SF-AS, from DOI: 10.1021/jm00395a009, PMID: 3681892; settings: pH 7.4
[21] = not given; remark: listed apart in the source

For CCCCCCCCC1(c2ccncc2)CCC(=O)NC1=O (stereo not given), the logP was 4.04.

With Cc1ccc2cc3ccccc3cc2c1 the logD [1] was 5.

In the case of Clc1cc2c(c(Cl)c1Cl)Oc1cc(Cl)c(Cl)c(Cl)c1O2, the logP [2] is reported as 7.8.

CC(C)OC(=O)CS(=O)c1ccc(Cl)cc1[N+](=O)[O-] (stereo not given) showed a logP [3] of 2.22.

Clc1cc(Cl)c2oc3c(Cl)c(Cl)c(Cl)c(Cl)c3c2c1 gave a logP [4] of 7.58.

CC1=C(C)C(O)N(c2ccc(C(F)(F)F)cc2)C1=O (stereo not given) gave a logP [5] of 3.13.

CC(C)NC(C)Cc1ccc(I)cc1 (stereo not given) gave a logP [6] of 1.6.

Compound O=[N+]([O-])c1ccc2ccc3cccc4ccc1c2c34 has a logP [7] of 5.06.

With CC(=O)N[C@@H](C)C(=O)NCC(=O)NC(C)(C)C the logD ([8]; pH 7.2) was -0.6.

Work on CCCCCCCOC(=O)c1cc(=O)[nH]c(=O)[nH]1 yielded a logD [9] of 2.15.

Compound CC1(C(=O)O)CCC2(C)CCC3(C)C(=CC(=O)C4C5(C)CCC(O)C(C)(C)C5CCC43C)C2C1 (stereo not given) has a logP [10] of 4.77.

Work on CCCCC(=O)OCCOCn1cnc2c(=O)[nH]c(N)nc21 yielded a logD [11] of 0.37.

CS(=O)CCCOc1ccc2ccccc2c1 (stereo not given) showed a logD [1] of 2.42.

With CS(=O)(=O)c1cccc2ccccc12 the logD [1] was 1.74.

O=C1CCCCCCCCCCC1 gave a logP [12] of 4.1.

Compound Clc1cc(Cl)c2oc3c(Cl)cc(Cl)c(Cl)c3c2c1Cl has a logP [4] of 7.65.

COC(=O)C(C)Oc1ccc(Oc2ncc(C(F)(F)F)cc2Cl)cc1 (stereo not given) showed a logP [13] of 4.07.

Fc1ccc(-c2ccc(-c3ccc(F)cc3)o2)cc1 showed a logP [12] of 5.11.

Work on O=c1c2c([nH]c3cc(-c4ccc(-c5ccc(OC(F)(F)F)cc5)cc4)ccc13)CCCC2 yielded a logD [14] of 3.8.

Compound CC(=O)c1ccc2cc(C(C)C(=O)OCC(=O)N(C)C)ccc2c1 (stereo not given) has a logD [15] of 2.05.

Work on O=c1c2c([nH]c3ccc(Br)cc13)CCSC2 yielded a logD [14] of 0.9.

Work on Brc1cc(Br)c(-c2cc(Br)ccc2Br)c(Br)c1 yielded a logP [16] of 6.89.

With S=c1ssc2c1CCCCCCCCCCCCC2 the logP [17] was 7.18.

CC(=O)NC(C)C(=O)NC(CC(=O)O)C(=O)NC(C)(C)C (stereo not drawn) (Ac-Ala-Asp-NHtBu; configuration not given here) showed a logD ([8]; pH 2.0) of -0.74.

Compound CC(C)OC(=O)CSc1ccccc1[N+](=O)[O-] has a logP [3] of 2.76.

For Cc1cc(I)cc(CN(C)CCCN(C)C)c1O, the logP [6] was 2.2.

With CCC(=O)OCC(CO)OCn1cnc2c(=O)[nH]c(N)nc21 (stereo not given) the logD [18] was -0.92.

Cc1cc(-c2ccc(OC(F)(F)F)cc2)ccc1-c1ccc2[nH]c3c(c(=O)c2c1)CSCC3 showed a logD [14] of 3.6.

For CC(C)OC(=O)CS(=O)c1ccc([N+](=O)[O-])cc1 (stereo not given), the logP [3] was 1.64.

In the case of CCCC(=O)OCCOCn1cnc2c(=O)[nH]c(N)nc21, the logD [11] is reported as -0.08.

CN(CCO)C(=O)COC(=O)c1ccccc1O gave a logD [15] of 0.86.

With CC(C)C(C(=O)O)c1ccc(Cl)cc1 (stereo not given) the logP [19] was 3.38.

CC(=O)OCC(CO)OCn1cnc2c(=O)[nH]c(N)nc21 (stereo not given) gave a logD [18] of -1.08.

Work on CCCCC(=O)OCC(CO)OCn1cnc2c(=O)[nH]c(N)nc21 (stereo not given) yielded a logD [18] of -0.07.

CCCCCC(=O)OCCOCn1cnc2c(=O)[nH]c(N)nc21 showed a logD [11] of 0.93.

For O=c1ccn(C2OC(CO)C(O)C2O)c(=O)n1Cc1ccccc1 (stereo not given), the logD [20] was 0.33.

In the case of CCCCCCCCCOC(=O)c1cc(=O)[nH]c(=O)[nH]1, the logD [9] is reported as 2.41.

With Cc1ccccc1NS(=O)(=O)c1c(O)c(Cl)cc(Cl)c1Cl the logP [21] was 4.02.

In the case of CCCN(CCCl)c1c([N+](=O)[O-])cc(C(F)(F)F)cc1[N+](=O)[O-], the logP [13] is reported as 4.63.

Work on CC1(C)[C@@H](O[C@H]2O[C@H](C(=O)O)[C@@H](O)[C@H](O)[C@H]2O[C@@H]2O[C@H](C(=O)O)[C@@H](O)[C@H](O)[C@H]2O)CC[C@@]2(C)[C@@H]3C(=O)C=C4[C@H]5C[C@@](C)(C(=O)O)CC[C@@]5(C)CC[C@@]4(C)C3(C)CC[C@@H]12 (stereo not given in full) yielded a logP [10] of 2.8.
